The values below come from paper PMC9804781, “Identification of a Novel Pseudo‐Natural Product Type IV IDO1 Inhibitor Chemotype” (Angewandte Chemie (International Ed. in English), 2022).

Where two headings read alike, the source gives them in different places.

The IC50 is the concentration needed to halve the response being measured. For orientation: ΔTm means the change in melting temperature against a reference sample.

One series deals with Kyn levels in HeLa cells. Nature of the series: Manual Kyn assay in HeLa cells (p-DMAB detection). In kind it is cell-based. The note with it: for IC50: IFN-γ, L-Trp, p-DMAB. As to the method:
Mammalian cell lines were maintained at 37°C and 5% CO2 in a humidified atmosphere and sub-cultivated twice a week. All cell lines were tested regularly for mycoplasma contamination and were always free of mycoplasma. BxPC-3 cells (DSMZ#760) were grown in RPMI-1640 medium supplemented with 10% FBS, 2 mM L-glutamine, 1 mM sodium pyruvate, 4.5 g/L glucose, 10 mM HEPES and 1.5 g/L NaHCO3. HeLa cells (DSMZ#57) were cultivated in DMEM supplemented with 10% FBS, 4.5 g/L glucose, 4 mM L-glutamine 1 mM sodium pyruvate, 1% non-essential amino acids, 3.7 g/L NaHCO3. SKOV-3 cells (ATCC#HTB-77) were maintained in modified McCoy’s 5A medium supplemented with 10% FBS, 1.5 mM L-glutamine and 2.2 g/L NaHCO3. […]
For manual testing, BxPC-3, HeLa or SKOV-3 cells (20,000 cells/well, 5,000 cells/well or 6,250 cells/well, respectively) were seeded in 96-well plates (BxPC-3 and HeLa) or 384-well plates (SKOV-3) in medium without phenol red. After 24 h, the IDO1 pathway was induced by addition of 50 ng/mL (BxPC-3 and HeLa) or 17.6 ng/mL IFN-γ (SKOV-3) and 380 µM (BxPC-3), 164.15 µM (HeLa) or 450 µM L-Trp (SKOV-3) with simultaneous treatment with the compounds at the indicated concentrations followed by incubation for 48 h. For the hemin competition assay, hemin was added together with IFN-γ, L-Trp and the compounds. Subsequently, trichloroacetic acid was added to a final concentration of 7% (v/v), the plates were incubated for 15 min at room […]
temperature and centrifuged for 10 min at 1800 x g. Afterwards, an equal volume of freshly prepared 2% (w/v) p-DMAB in glacial acetic acid (Ehrlich reagent) was added prior to measuring the absorbance at 492 nm and 650 nm on the Spark® Multimode Microplate Reader (Tecan, AT).
To determine the Kyn levels, the absorbance of the Kyn-p-DMAB adduct A492 was subtracted by the background absorbance A650 and normalized to the DMSO control. Data analysis was performed using a non-linear regression curve fit and GraphPad Prism 9.0 (GraphPad Software, Inc, US) to generate dose-response curves and obtain IC50 values. […]
Subsequently, 10 mM ascorbic acid, 10 μM methylene blue, 2 mM L-Trp and 100 μg/mL catalase were added and samples were incubated for 60 min at room temperature or 37°C. […]

In another series the target is T1, His-tagged TDO (Homo sapiens, UniProt P48775).
T1 construct: His; purchased BPS Bioscience 72035 (kit)
Nature of the series: TDO Activity Assay. In kind it is biochemical. The note with it: 50 µM; 120 min at 37 °C. As to the method:
Inhibition of tryptophan 2,3-dioxygenase (TDO) was tested using the Universal IDO1/IDO2/TDO Inhibitor Screening Assay Kit (cat# 72035, BPS Bioscience, US). 500 ng His-tagged TDO in TDO Assay Buffer was incubated with Reaction Solution and 50 µM Test Inhibitor (0.5% (v/v) DMSO) for 120 min at 37°C with slow shaking in the dark. Afterwards, absorbance at 321 nm was recorded on the Spark® Multimode Microplate Reader (Tecan, AT), all values were subtracted by the background and normalized to the DMSO control. […]
(§1) (v/v) component 2 in component 1) and 50 µM Test Inhibitor (0.5% (v/v) DMSO) for 90 min at 30°C with slow shaking in the dark prior to initiation of the reaction by addition of 20% (v/v) IDO2 Substrate. Samples were incubated for 120 min at 30°C with slow shaking in the dark. […]

The nature of series [1]: Ligand integrity in the crystallization drop (HPLC-ESI-MS). In kind it is physicochemical. The note with it: 63 days after the crystallization setup. As to the method:
for 10 min. Protein crystals were obtained from a sitting drop setup (iQ plates, SPT Labtech, UK) by addition of 100 nL of the reservoir solution (40% (v/v) PEG200 in 100 mM MES, pH 6.5) to 100 nL of protein solution and incubation at 20°C. Crystals were harvested after 7 days by addition of reservoir solution as cryoprotectant to the drop prior to plunging of the crystals in liquid nitrogen. […]
The integrity of apoxidole-1 in the protein solution was assessed 63 days after the crystallization setup by mixing the crystallization drop with 100 µL of DCM and recording of HPLC-ESI-MS spectra using the LTQ Fleet (Thermo Fisher Scientific, US), Ultimate 3000 HPLC (Thermo Fisher Scientific, US) and Xcalibur™ software (Thermo Fish er Scientific, US). […]
as §1

The next series concerns the target IDO1 (Homo sapiens, UniProt P14902). Nature of the series: In-Cell CETSA for IDO1 in SKOV-3 cells. More on the design: endogenous in cells; host or cells: SKOV-3 (IFN-γ induced). In kind it is cell-based. The note with it: 15 min.

Sequence of IDO1 (P14902 whole entry): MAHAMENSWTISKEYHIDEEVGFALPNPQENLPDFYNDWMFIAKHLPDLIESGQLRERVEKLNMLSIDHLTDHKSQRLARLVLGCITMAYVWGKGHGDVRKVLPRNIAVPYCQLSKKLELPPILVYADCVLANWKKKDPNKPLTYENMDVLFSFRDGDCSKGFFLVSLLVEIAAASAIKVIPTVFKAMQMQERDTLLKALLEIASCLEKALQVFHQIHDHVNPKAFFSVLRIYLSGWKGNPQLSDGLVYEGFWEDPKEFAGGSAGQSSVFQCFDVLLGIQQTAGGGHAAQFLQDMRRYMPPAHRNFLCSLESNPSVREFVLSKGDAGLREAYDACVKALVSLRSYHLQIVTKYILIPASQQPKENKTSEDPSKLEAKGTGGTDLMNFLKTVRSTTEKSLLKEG
T1 sequence (P48775 whole entry): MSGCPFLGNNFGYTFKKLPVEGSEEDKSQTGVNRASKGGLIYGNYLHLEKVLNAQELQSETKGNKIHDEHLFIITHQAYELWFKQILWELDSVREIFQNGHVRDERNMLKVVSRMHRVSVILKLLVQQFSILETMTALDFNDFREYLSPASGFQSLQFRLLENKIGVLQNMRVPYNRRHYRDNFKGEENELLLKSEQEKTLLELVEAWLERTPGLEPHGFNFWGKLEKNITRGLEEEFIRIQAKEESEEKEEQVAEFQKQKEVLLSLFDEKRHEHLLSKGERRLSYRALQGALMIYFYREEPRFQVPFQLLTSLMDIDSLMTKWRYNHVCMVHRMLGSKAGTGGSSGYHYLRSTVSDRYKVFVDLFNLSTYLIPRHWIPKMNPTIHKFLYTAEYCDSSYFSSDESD
Experimental for IDO1: SKOV-3 cells (1.25 x 10^6 cells/flask) were seeded in two T75 tissue culture flasks and incubated for 24 h prior to addition of 17.6 ng/mL IFN-γ and 10 µM succinylacetone (SA, heme synthesis inhibitor). After 24 h, cells were treated with the compound (C) or DMSO (V, vehicle) for 15 min at 37°C. Cells were detached with trypsin/EDTA and washed thrice in cold PBS after resuspension in cold PBS. C- and V-treated samples were distributed equally into ten tubes each and subjected to heating at different temperatures in the MasterCycler EpGradient S (Eppendorf SE, DE). Afterwards, NP-40 alternative was added to a final concentration of 0.4% (v/v) and cells were lysed by five consecutive freeze/thaw cycles. Soluble fractions were separated from denatured proteins by centrifugation at 100,000 x g and 4°C for 20 min. Supernatants were transferred to new tubes and subjected to immunoblot analysis.

On to `CCOC(=O)C1=CC[C@](C(=O)OC)(c2cc3ccccc3n2C)N(S(=O)(=O)c2ccc(C)cc2)[C@@H]1C(=O)OC(C)(C)C` [Compound 3d], for which, in the series on Kyn levels in HeLa cells, the “fold less active than enantiopure apoxidole-1 (Kyn assay)” value turned out to be 72 fold. Moreover, the IC50 in the series with Kyn levels in HeLa cells (Homo sapiens, HeLa, 48 h, 48 h, mean±SD, n=3, read-out: Kyn assay IC50 HeLa) came out at 46.7 ± 2.4 nM; in the series on Kyn levels in HeLa cells (48 h, mean±SD, n=3, listed as apoxidole-1, read-out: Kyn assay IC50 HeLa), 46.7 ± 2.44 nM; in the series on Kyn levels in HeLa cells (compounds 48 h, mean n=3 ±SD, listed as 3d^a, read-out: Kyn Assay IC50) it was 280 ± 40 nM; in the series on Kyn levels in HeLa cells (compounds 48 h, mean n=3 ±SD, listed as 3d^ab, read-out: Kyn Assay IC50), 3410 ± 260 nM; with Kyn levels in HeLa cells (compounds 48 h, mean n=3 ±SD, listed as 3d^b, read-out: Kyn Assay IC50) it was 47 ± 2 nM; in the series on Kyn levels in HeLa cells (compounds 48 h, mean n=3 ±SD, read-out: Kyn Assay IC50) it was 70 ± 10 nM. For the same molecule, at His-tagged TDO, the “inhibition of TDO (result in words)” value is on record as “did not inhibit”. In series [1], the “ligand integrity after crystallization setup” value was “still intact”. Moreover, on IDO1 (IFN-γ 24 h, 50 μM, no succinylacetone), the “CETSA shift in Tm of IDO1 (result in words)” value is “did not lead to a shift”. In addition, the ΔTm at 30 µM at IDO1 (SK-OV-3, IFN-γ and 10 μM succinylacetone 24 h, 30 μM, read-out: CETSA ΔTm of apo-IDO1) turned out to be 7.9 ± 0.6 °C.
